Literature values, collected in patent US20090093506A1, “Copper antagonist compositions” (priority 2007, published 2009).
Blank lines part the entries; values can stand above or below the compound they belong to.

Columns and labels:
[1] = not given; remark: listed apart in the source
[2] = solution of the free base itself

solubility in acetone (acetone): insoluble
solubility in alcohol (alcohol): slightly soluble
solubility in benzene (benzene): insoluble
solubility in carbon tetrachloride (carbon tetrachloride): insoluble
solubility in ether (ether): insoluble
solubility in water (water): freely soluble
SMILES: CC(C)(S)[C@@H](N)C(=O)O [Penicillamine, 3-mercapto-D-valine]

SMILES: CC(=O)[O-].CC(=O)[O-].[Zn+2] [Zinc acetate]
long-term or major side effects ([1]; patients with Wilson's disease): has not shown any long-term or major side effects

rhabdomyolysis ([1]; patients receiving the drug, withdrawn from the U.S. market August 2001): seen to occur more often
SMILES: COCc1c(C(C)C)nc(C(C)C)c(/C=C/[C@@H](O)C[C@@H](O)CC(=O)O)c1-c1ccc(F)cc1 [cerivastatin]

pH of a solution [2]: 14
SMILES: NCCNCCNCCN [trientine, triethylenetetramine]
